Source: patent US9233913B2, “Amino acid derivatives for the treatment of neuropathic pain” (priority 2009, dated 2016)
Like-named read-outs stand apart in the source and are kept apart here.

Legend:
Gabapentin binding site [1] = biological target: T1, Gabapentin binding site (Rattus norvegicus, UniProt P54290); assay: [3H]-gabapentin binding assay, Method 2 (crude rat brain membranes); conditions: 20 nM [3H]-gabapentin; for % inhibition 1 μM: compound 1 μM; for % inhibition 10 μM: compound 10 μM
T1 sequence (P54290 25-1091): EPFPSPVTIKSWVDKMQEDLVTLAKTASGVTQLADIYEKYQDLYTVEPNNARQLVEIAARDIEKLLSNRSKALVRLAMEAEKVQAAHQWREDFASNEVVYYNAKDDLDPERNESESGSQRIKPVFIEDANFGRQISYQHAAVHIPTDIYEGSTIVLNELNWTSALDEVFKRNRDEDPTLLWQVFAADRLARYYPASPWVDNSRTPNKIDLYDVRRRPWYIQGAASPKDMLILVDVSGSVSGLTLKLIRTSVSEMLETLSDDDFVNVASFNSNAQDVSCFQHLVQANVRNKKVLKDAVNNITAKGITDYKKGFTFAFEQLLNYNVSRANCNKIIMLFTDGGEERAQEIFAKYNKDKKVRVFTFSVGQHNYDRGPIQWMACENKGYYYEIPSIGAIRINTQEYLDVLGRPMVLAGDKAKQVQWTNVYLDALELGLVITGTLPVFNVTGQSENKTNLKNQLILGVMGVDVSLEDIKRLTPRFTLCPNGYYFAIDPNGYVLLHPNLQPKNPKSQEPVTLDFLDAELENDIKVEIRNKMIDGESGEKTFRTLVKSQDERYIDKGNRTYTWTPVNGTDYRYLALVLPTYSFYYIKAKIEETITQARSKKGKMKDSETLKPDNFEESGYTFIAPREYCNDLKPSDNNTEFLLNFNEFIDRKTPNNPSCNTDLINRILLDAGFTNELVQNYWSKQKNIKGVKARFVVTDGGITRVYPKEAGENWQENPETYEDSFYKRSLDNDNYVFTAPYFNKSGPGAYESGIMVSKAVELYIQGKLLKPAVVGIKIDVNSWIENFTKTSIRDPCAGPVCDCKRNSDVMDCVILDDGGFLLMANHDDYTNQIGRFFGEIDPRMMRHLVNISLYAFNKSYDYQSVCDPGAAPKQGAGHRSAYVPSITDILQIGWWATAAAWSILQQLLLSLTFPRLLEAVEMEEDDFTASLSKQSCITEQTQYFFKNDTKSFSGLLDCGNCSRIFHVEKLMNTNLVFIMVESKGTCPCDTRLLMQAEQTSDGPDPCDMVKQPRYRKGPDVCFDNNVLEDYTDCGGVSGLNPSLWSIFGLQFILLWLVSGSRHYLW
Protocol: Membrane preparation: cortices from 5 rats were homogenized in a 0.32 M sucrose solution containing 10 mM HEPES/KOH. Suspensions were centrifuged for 10 minutes at 2500×g and the supernatants were centrifuged at 48000×g for 20 minutes. […] The final pellets were re-suspended in 10 mM HEPES/KOH. Protein concentration was determined using a BCA kit from Pierce (Rockford, Ill.). The quality of the preparation was assessed in a binding assay to gabapentin.
Binding assay: in 96-well plates, the selected compounds were incubated in 10 mM HEPES/KOH pH 7.4 at concentrations of 10 and 1 μM for 30 minutes at room temperature in the presence of 20 nM [^3H]-gabapentin and rat brain membranes (300 μg/mL of proteins). Radioactivity was assessed after filtration with the Tomtec cell harvester using a glass fiber filter A. Counts were obtained using the Microbeat Trilux counter.
[formula] wherein: [total binding]s is the total binding of [^3H]-gabapentin in the presence of the compound; [non-specific binding]c is the non specific binding of [^3H]-gabapentin in the presence of 100 μM cold gabapentin (c=control); and [total binding]c is the total binding of [^3H]-gabapentin alone.

Gabapentin binding site [2] = biological target: T1, Gabapentin binding site; conditions: Method 1, rat brain membranes, 3H-gabapentin; for % inhibition 1 μM: compound 1 μM; for % inhibition 10 μM: compound 10 μM
Protocol: Materials: Gabapentin is from TRC, [^3H]-Gabapentin is from GE Healthcare, and Meltilex A sheets (melt-on scintillator sheets) are from Perkin Elmer. Rat brain membranes are prepared in-house by conventional methods.
All solutions are prepared for the assay just before use, except for the membrane dilution. […] The final compound concentration in the assay is 1, 10 and 100 μM. The same is done with a solution not containing the test articles as control. The test plate is then incubated for 30 minutes at room temperature with agitation. The binding reaction is terminated using a Tomtec cell harvester machine (Mach III M-FP-1). A meltilex sheet is placed on the filtermat (harvest from the assay) and is allowed to melt in the oven at 65° C. for 1 to 4 min. The filter is inserted in the plastic pouch, which is sealed and allowed to cool for 1 h before counting with a Microbeta Trilux counter (Perkin Elmer).
Results are calculated using the count per minutes (CPM) obtained for each sample with the Trilux. The CPM obtained for the control diluent represents the 100% binding of ^3H-Gabapentin to membrane. The CPM obtained for the control gabapentin 100 μM represents the 0% binding. The % of binding for each compound is calculated by the formula: […]

[3] = test system: Diet-Induced Obesity (DIO) mouse model; assay: Diet-Induced Obesity (DIO) mouse model: glycemia, insulin, body weight; assay type: in vivo; conditions: DIO mice; 100 mg/kg BID oral gavage, 7 days
Protocol: The objective of this study is to determine the effect of the compounds of the invention, namely Compounds 6A, 6B and 18, glycemia, insulin and body weight gain in a Diet-Induced Obesity (DIO) mouse model. Results are compared with (2S,3R,4S)-4-hydroisoleucine (positive control) and vehicle (negative control).
C57BL/6 mice are tested at 17-18 weeks of age and fed a high fat diet (60% of calories from fat) for 8 weeks. Fasted glycemia and body weight values are used to randomize the mice into control and treatment groups (n=8). The animals are treated twice dally (BID) (once on 7th day) by oral gavage with 4-hydroxyisoleucine, Compounds 6A, 6B and 18 (100 mg per kg of body weight), and the control group receive vehicle (water) alone. The animals are treated for 7 days.
Oral glucose Tolerance Test (OGTT) is performed at 5 hours±30 minutes Post starvation (day 0 only) or Post AM test article administration (for day 7). Blood samples are collected via tail vein for glucose determination prior to glucose challenge (Pre-OGTT) and at 5, 10, 20, 30, 60, 90 and 120 minutes post-glucose administration. Glucose determination is perfomed using a hand held glucometer (Model OneTouch Ultra, LifeScan).
A second blood sample is also collected Pre-OGTT and at 5, 10, 60 and 120 minutes Post-OGTT for insulin determination. Insulin determination is done using an enzyme Immunoassay kit (Mecodia Ultrasensitive Mouse Insulin ELISA, ALPCO Diagnostics, Wndham, N.H.).
Body weight of the mice is measured at arrival, randomization, and on days 0, 3 and 7 of treatment. At the end of the study, the epididymal fat pads were isolated and weighed. Data are expressed as mean±SEM of body weight and mean±SEM of fat pad weight.

[4] = Pharmacokinetic profile in mice; assay type: in vivo; conditions: mouse, plasma, read-out: Bioavailability (% F)
Protocol: Compounds are tested for pharmacokinetic profile, including oral bioavailability in mice using the following procedure. Bioavailability estimates are performed after administration of 100 mg/kg of Compound 6B and 50 mg/kg of Compound 18 either Intravenously (IV) or orally (PO). Four animals per time point, per mode of administration are used. At each specific time point following drug administration, a blood sample is collected terminally (under isoflurane anesthesia) via cardiac puncture from each the 4 animals. Samples are collected at pre-dose and at 5, 15, 30, and 60 minutes and at 2, 4, 6, 8, 14 and 24 hours post oral administration and at pre-dose and 2, 5, 15, 30, and 60 minutes and 2, 4, 8, 14 and 24 hours post intravenous administration. Blood samples are collected into tubes containing K3-EDTA as anticoagulant, kept on ice until centrifugation at 4° C. at a minimum speed of 3000 rpm (1620G) for 10 min. Plasma samples are harvested into polypropylene tubes, immediately placed on dry ice and stored at −80° C.
Compounds in mouse plasma are extracted using protein precipitation. Quantitation of the compounds in mouse plasma matrix is achieved using LC-MS detection. Sample concentration is calculated using a calibration curve. FIGS. 3A and 3B show mouse PK curves in log scale for Compounds 6B and 18 respectively. […]

[5] = test system: metrazole-induced clonic convulsions and mortality; assay: Metrazole-induced convulsions model; conditions: metrazole 100 mg/kg, 100% = score 9
[6] = Pharmacokinetic profile in dogs; assay type: in vivo; conditions: one female Beagle dog
Protocol: The pharmacokinetic profile of Compound 18 is evaluated in one female Beagle dog. One single oral and one single IV dose of 25 mg/kg separated by a wash-out period are administered to the dog to get key preliminary information about the pharmacokinetics and oral bioavailability of Compound 18.

SMILES | % inhibition 1 μM (Gabapentin binding site [1]) | % inhibition 10 μM (Gabapentin binding site [1]) | % inhibition 1 μM (Gabapentin binding site [2]) [%] | % inhibition 10 μM (Gabapentin binding site [2]) [%] | effect on glycemia compared to control [3] | also measured
N[C@@H](Cc1ccco1)C(=O)O [(2S)-Compound, (2S)-3-(2-furyl)alanine] | 61% (±8) | 16% (±3) | – | – | – | –
C[C@@H]([C@H](C)O)[C@H](N)C(=O)O [Compound 4-HO-Ile, (2S,3R,4S) 4-hydroxyisoleucine, reference compound] | – | – | 13 | 51 | – | –
N[C@@H](CC1CCCO1)C(=O)O (stereo partly shown) [Compound 6] | – | – | 82 | 92 | – | –
N[C@@H](C[C@H]1CCCO1)C(=O)O [Compound 7] | 19% (±4) | 1% (±1) | – | – | neutral or beneficial effect | effect on insulin compared to control [3]: neutral or beneficial effect
N[C@@H](C[C@@H]1CCCO1)C(=O)O [Compound 8] | 11% (±1) | 0% (±2) | – | – | neutral or beneficial effect | bioavailability ([4]; 100 mg/kg IV or PO): ~100%; effect on insulin compared to control [3]: neutral or beneficial effect
N[C@H](C(=O)O)[C@@H]1CCCC[C@H]1O [Compound 18] | 21% (±3) | 6% (±1) | 87 | 90 | no effect | % Prevention of convulsions in mice ([5]; dose 200 mg/kg): 67%; bioavailability ([4]; 50 mg/kg IV or PO): 88.4%; bioavailability ([6]; in vivo, 25 mg/kg oral and IV): 97%; absorption following oral administration ([6]; 25 mg/kg oral): rapidly and very well absorbed; first pass effect ([6]; 25 mg/kg oral): does not demonstrate any significant first pass effect; terminal half live ([6]; 25 mg/kg single dose): around 7 hours
CN1C(=O)CN=C(c2ccccc2)c2cc(Cl)ccc21 [Diazepam, diazepam] | – | – | – | – | – | % Prevention of convulsions in mice ([5]; dose 1 mg/kg): 67%
NCC1(CC(=O)O)CCCCC1 [Gabapentin] | – | – | – | – | – | % Prevention of convulsions in mice ([5]; dose 100 mg/kg): 67%
